Measurements: publication PMC6736568, “Discovery of Novel Anti-cryptosporidial Activities From Natural Products by in vitro High-Throughput Phenotypic Screening” (Frontiers in Microbiology, 2019)
Structures can show the parent of a compound that is named as a salt. Where two headings read alike, the source gives them in different places.

Columns and labels:
[1] = test system: Cryptosporidium parvum; experiment: qRT-PCR assay of the growth of C. parvum in vitro in HCT-8 host cells (primary and secondary screening, EC50); type: cell-based; conditions: Cryptosporidium parvum, HCT-8; for inhibition at 10 µM: primary screening at 10 uM, read-out: Inhibition (%); for inhibition at 3.3 µM: secondary screening at 3.3 uM, read-out: % Inhibition (3.3 uM)
[2] = test system: HCT-8 host cells (Hs18S)
[3] = in vitro; conditions: for cytotoxicity at 41 h, 10 µM: human
[4] = primary screening at 10 uM, treated vs control

Compound | Hs18S ΔCT ([2]; human, 41 h, 10 μM) | inhibition at 10 µM [1] | inhibition at 3.3 µM [1] | cytotoxicity at 41 h, 10 µM [3] | Hs18S ΔCT [2, 4] | cytotoxicity at 10 µM [3]
COc1ccc2c(c1)O[C@H]1c3ccc(OC)cc3OC[C@@H]21 [HOMOPTEROCARPIN] | – | 5.57% | – | – | -0.01 | -0.7%
O=c1c(O)c(-c2ccccc2)oc2cc(O)cc(O)c12 [GALANGIN] | – | -14.9% | – | – | 0.39 | 23.6%
N=C(N)NCCCCN [AGMATINE SULFATE] | – | -2.93% | – | – | 0.21 | 13.5%
O=C(/C=C/c1ccccc1)c1ccc(O)cc1 [4'-HYDROXYCHALCONE] | 0.33 | 9.45% | – | 20.5% | – | –
C[C@H](CCC(=O)O)[C@H]1CC[C@H]2[C@@H]3CC[C@@H]4C[C@H](O)CC[C@]4(C)[C@H]3C[C@H](O)[C@]12C [DEOXYCHOLIC ACID] | 0.55 | -39.8% | – | 31.7% | – | –
C[N+]12CC[C@@]34c5ccccc5N5C(=O)C[C@@H]6OCC=C(C1)[C@H](C[C@@H]32)[C@@H]6[C@H]54 (some centres unmarked) [[…]] | – | -6.9% | – | – | 0.58 | 33.3%
COc1ccc([C@H]2Oc3cc(OC)cc(OC)c3C[C@H]2O)cc1 [EPIAFZELECHIN TRIMETHYL ETHER] | 0.21 | 13.8% | – | 13.4% | – | –
O=C(Oc1cc(O)cc2c1C[C@@H](OC(=O)c1cc(O)c(O)c(O)c1)[C@@H](c1cc(O)c(O)c(O)c1)O2)c1cc(O)c(O)c(O)c1 [EPIGALLOCATECHIN 3,5-DIGALLATE] | – | -1.19% | – | – | -0.23 | -17.5%
C=CC(C1=CC(=O)C(OC)=CC1=O)c1ccc(OC)cc1 (centres unmarked) [4,4'-DIMETHOXYDALBERGIONE] | -0.01 | -34.2% | – | -0.7% | – | –
CN1[C@@H]2C[C@@H](OC(=O)[C@H](CO)c3ccccc3)C[C@H]1[C@@H]1O[C@@H]12 [SCOPOLAMINE HYDROBROMIDE] | – | 14% | – | – | -0.37 | -29.6%
NC(Cn1ccc(=O)c(O)c1)C(=O)O (centres unmarked) [MIMOSINE] | -0.01 | -22% | – | -0.4% | – | –
Cc1cc(O)cc(=O)o1 | – | 15.4% | – | – | 0.04 | 3.1%
Cc1nccc2c1[nH]c1ccccc12 [HARMANE] | – | -23.2% | – | – | 0.07 | 4.5%
N#C[C@H](O[C@@H]1O[C@H](CO[C@@H]2O[C@H](CO)[C@@H](O)[C@H](O)[C@H]2O)[C@@H](O)[C@H](O)[C@H]1O)c1ccccc1 [AMYGDALIN] | – | -15.6% | – | – | 0.07 | 4.8%
COC(=O)C1=CCCN(C)C1 [ARECOLINE HYDROBROMIDE] | – | -6.72% | – | – | -0.47 | -38.7%

More lines, main results first:

Hs18S ΔCT ([2]; human, 41 h, 10 μM) | Compound | inhibition at 10 µM [1] | inhibition at 3.3 µM [1] | cytotoxicity at 41 h, 10 µM [3] | Hs18S ΔCT [2, 4] | cytotoxicity at 10 µM [3]
-0.02 | COc1cc(C2Oc3cc([C@H]4Oc5cc(O)cc(O)c5C(=O)[C@@H]4O)ccc3OC2CO)ccc1O (some centres unmarked) [SILIBININ] | 93.5% | -30% | -1.4% | – | –
-0.50 | CC1=C2C(O)C(=O)OC3CC4C(C)(C)C(=O)C=C[C@]4(C)C(CC1)[C@]23C (some centres unmarked) [MEROGEDUNIN] | -12.3% | – | -41.1% | – | –
0.02 | CC(C)=CCC/C(C)=C/CC/C(C)=C/CO [FARNESOL] | 8.75% | – | 1% | – | –
-0.16 | CO[C@H]1[C@H](O)[C@@H](O)[C@H](O)[C@H](O)[C@H]1O [QUEBRACHITOL] | -39% | – | -11.4% | – | –
-0.08 | COc1c2c(cc3occ(-c4ccc5c(c4)OCO5)c(=O)c13)OC(C)(C)C=C2 [METHYL ROBUSTONE] | -44.6% | – | -5.4% | – | –
-0.40 | N[C@@H](CCC(=O)N[C@@H](CS)C(=O)NCC(=O)O)C(=O)O [GLUTATHIONE] | 68.1% | -20% | -32% | – | –
0.24 | CC(C)[C@@H]1CC[C@@H](C)C[C@H]1OC(=O)c1ccccc1 [MENTHYL BENZOATE] | 1.74% | – | 15.1% | – | –
-0.17 | COC(=O)[C@H]1[C@H]2C[C@H]3c4[nH]c5ccccc5c4CCN3C[C@H]2CC[C@@H]1O [RAUWOLSCINE HYDROCHLORIDE] | 22.9% | – | -12.6% | – | –
